Source: ChEMBL document CHEMBL1150686, “Three new sesquiterpenes from the red alga Laurencia perforata” (J Nat Prod, 2003)
Active and inactive are the calls of the source. The calls are words filed in the database; no cut-off is given here.

Tested on: not listed separately
Assay: Inhibition of protein tyrosine kinase

Row | Activity | Structure (SMILES)
1 | inactive | CC1=CC[C@@]2(C)C(=C(C)C(=O)[C@H](O)[C@@H]2C)CC1
2 | inactive | C=C1[C@@H]2CC[C@]13[C@H](C)C(=O)[C@@H](O)[C@@H](C)[C@]3(C)C2 (relative stereo)
3 | inactive | CC1=CC[C@@]2(C)C(=C(C)C(=O)[C@H](O)[C@@H]2C)[C@H](O)C1 (relative stereo)

Molecular target: Human immunodeficiency virus type 1 reverse transcriptase (Human immunodeficiency virus 1) (UniProt Q72547)
Assay: Inhibition of HIV1 reverse transcriptase

Row | Activity | Structure (SMILES)
4 | inactive | CC1=CC[C@@]2(C)C(=C(C)C(=O)[C@H](O)[C@@H]2C)CC1
5 | inactive | C=C1[C@@H]2CC[C@]13[C@H](C)C(=O)[C@@H](O)[C@@H](C)[C@]3(C)C2 (relative stereo)
6 | inactive | CC1=CC[C@@]2(C)C(=C(C)C(=O)[C@H](O)[C@@H]2C)[C@H](O)C1 (relative stereo)
